Measurements: US8598202B2, “Aryl-hydroxyethylamino-pyrimidines and triazines as modulators of fatty acid amide hydrolase” (Janssen Pharmaceutica NV, priority 2008, dated 2013)
Where a name gives a salt, the structure may show the parent alone.

What was measured:
Rat FAAH-1 = target: T1, Rat FAAH-1 (Rattus norvegicus, UniProt P97612); experiment: Assay Method 2: rat FAAH-1 assay, 3H-anandamide hydrolysis in homogenate of SK-N-MC cells transfected with rat FAAH
T1 sequence (P97612 1-579): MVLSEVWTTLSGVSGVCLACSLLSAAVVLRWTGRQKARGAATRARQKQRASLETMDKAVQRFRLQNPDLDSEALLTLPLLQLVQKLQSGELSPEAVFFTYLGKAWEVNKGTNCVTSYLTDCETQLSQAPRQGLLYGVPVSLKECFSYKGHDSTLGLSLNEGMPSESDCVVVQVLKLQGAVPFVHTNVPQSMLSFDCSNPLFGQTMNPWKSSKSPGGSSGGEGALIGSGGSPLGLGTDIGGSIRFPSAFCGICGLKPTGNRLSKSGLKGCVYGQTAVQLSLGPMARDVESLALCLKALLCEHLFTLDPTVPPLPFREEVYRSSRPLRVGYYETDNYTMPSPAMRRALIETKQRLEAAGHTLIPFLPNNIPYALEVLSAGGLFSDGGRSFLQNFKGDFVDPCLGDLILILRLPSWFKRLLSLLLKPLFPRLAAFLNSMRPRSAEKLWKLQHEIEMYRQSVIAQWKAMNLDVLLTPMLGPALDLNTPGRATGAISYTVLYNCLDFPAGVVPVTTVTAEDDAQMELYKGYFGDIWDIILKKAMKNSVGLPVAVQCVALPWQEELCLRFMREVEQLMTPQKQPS

FAAH = target: T2, FAAH (Homo sapiens, UniProt O00519); experiment: Assay Method 1: FAAH assay, 3H-anandamide hydrolysis in homogenate of T84 cells or SK-N-MC cells transfected with human FAAH
T2 sequence (O00519 1-579): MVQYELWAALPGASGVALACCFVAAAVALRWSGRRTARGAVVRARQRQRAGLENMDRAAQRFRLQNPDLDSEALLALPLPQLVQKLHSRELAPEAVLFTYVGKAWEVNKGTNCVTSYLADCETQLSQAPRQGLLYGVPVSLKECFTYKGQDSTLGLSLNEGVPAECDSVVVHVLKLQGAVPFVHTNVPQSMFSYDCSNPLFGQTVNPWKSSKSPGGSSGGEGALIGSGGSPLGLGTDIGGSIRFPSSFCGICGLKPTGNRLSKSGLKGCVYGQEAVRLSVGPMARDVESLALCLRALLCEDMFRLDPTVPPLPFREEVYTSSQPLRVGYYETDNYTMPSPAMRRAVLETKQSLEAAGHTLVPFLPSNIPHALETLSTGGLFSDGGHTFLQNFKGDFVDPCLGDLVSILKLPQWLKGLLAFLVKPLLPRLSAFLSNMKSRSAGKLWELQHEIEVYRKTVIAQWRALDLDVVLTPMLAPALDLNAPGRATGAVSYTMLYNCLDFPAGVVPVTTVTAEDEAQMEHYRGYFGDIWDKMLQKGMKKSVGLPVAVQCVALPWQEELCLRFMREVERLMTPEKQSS

`O[C@@H](CNc1cc(-c2ccc3c(C(F)(F)F)noc3c2)ncn1)c1ccc(F)cc1` [Example 177, (1R)-1-(4-Fluorophenyl)-2-({6-[3-(trifluoromethyl)-1,2-benzisoxazol-6-yl]pyrimidin-4-yl}amino)ethanol trifluoroacetic acid salt] was tested, and the IC50 (Rat FAAH-1) was 3 nM and the IC50 (FAAH) was 3 nM.

`OC(CNc1cc(-c2ccc(OC(F)(F)F)cc2)ncn1)c1ccc2c(c1)OC(F)(F)O2` (stereo not drawn) [Example 122, 1-(2,2-Difluoro-1,3-benzodioxol-5-yl)-2-[(6-{4-[(trifluoromethyl)oxy]phenyl}pyrimidin-4-yl)amino]ethanol] was tested, and the IC50 (Rat FAAH-1) was 19 nM and the IC50 (FAAH) was 13 nM.

With `CC(C)COc1ccc(-c2cc(NC[C@H](O)c3ccccc3)ncn2)cc1` [Example 37, (1R)-2-({6-[4-(2-Methylpropoxy)phenyl]pyrimidin-4-yl}amino)-1-phenylethanol trifluoroacetic acid salt] the IC50 (Rat FAAH-1) was 8000 nM and the IC50 (FAAH) was 400 nM.

With `O[C@@H](CNc1cc(-c2ccc3c(C(F)(F)F)noc3c2)ncn1)c1ccccc1` [Example 182, (1R)-1-Phenyl-2-({6-[3-(trifluoromethyl)-1,2-benzisoxazol-6-yl]pyrimidin-4-yl}amino)ethanol] the IC50 (Rat FAAH-1) was 4 nM and the IC50 (FAAH) was 10 nM.

`OC(CNc1cc(-c2ccc(OC(F)(F)F)cc2)ncn1)c1ccc2c(c1)OCO2` (stereo not drawn) [Example 127, 1-(1,3-Benzodioxol-5-yl)-2-[(6-{4-[(trifluoromethyl)oxy]phenyl}-pyrimidin-4-yl)amino]ethanol] was tested, and the IC50 (Rat FAAH-1) was 112 nM and the IC50 (FAAH) was 122 nM.

In the case of `OC(CNc1cc(-c2ccc(C(F)(F)F)c(Cl)c2)ncn1)c1cc2cc(Br)ccc2s1` (stereo not drawn) [Example 218, 1-(5-Bromo-1-benzothiophen-2-yl)-2-({6-[3-chloro-4-(trifluoromethyl)phenyl]pyrimidin-4-yl}amino)ethanol], the IC50 (Rat FAAH-1) is reported as 1000 nM and the IC50 (FAAH) is reported as greater than 10000 nM.

For `OC(CNc1cc(-c2ccc(C(F)(F)F)c(Cl)c2)ncn1)c1ccc2c(c1)OCCO2` (stereo not drawn) [Example 199, 2-({6-[3-Chloro-4-(trifluoromethyl)phenyl]pyrimidin-4-yl}amino)-1-(2,3-dihydro-1,4-benzodioxin-6-yl)ethanol], the IC50 (Rat FAAH-1) was 120 nM and the IC50 (FAAH) was 500 nM.

For `Cc1c(NC[C@H](O)c2ccccc2)ncnc1-c1ccc(C(F)(F)F)c(F)c1` [Example 48, (1R)-2-({6-[3-Fluoro-4-(trifluoromethyl)phenyl]-5-methylpyrimidin-4-yl}amino)-1-phenylethanol trifluoroacetic acid salt], the IC50 (Rat FAAH-1) was 1500 nM and the IC50 (FAAH) was 105 nM.

Molecule `OC(CNc1cc(-c2ccc(C(F)(F)F)c(Cl)c2)ncn1)c1ccc(-c2ccccc2)cc1` (stereo not drawn) [Example 195, 1-Biphenyl-4-yl-2-({6-[3-chloro-4-(trifluoromethyl)phenyl]pyrimidin-4-yl}amino)ethanol] has an IC50 (Rat FAAH-1) of 400 nM and an IC50 (FAAH) of 10 nM.

For `COc1ccc(C(O)CNc2cc(-c3ccc(OC(F)(F)F)cc3)ncn2)cc1` (stereo not drawn) [Example 111, 1-[4-(Methyloxy)phenyl]-2-[(6-{4-[(trifluoromethyl)oxy]phenyl}-pyrimidin-4-yl)amino]ethanol], the IC50 (Rat FAAH-1) was 220 nM and the IC50 (FAAH) was 122 nM.

`O=S(=O)(c1ccc(-c2cc(NC[C@H](O)c3ccccc3)ncn2)cc1)N1CCCC1` [Example 80, (1R)-1-Phenyl-2-({6-[4-(Pyrrolidin-1-ylsulfonyl)phenyl]pyrimidin-4-yl}amino)ethanol] gave an IC50 (Rat FAAH-1) of 665 nM and an IC50 (FAAH) of 68 nM.

Work on `Cc1ccc2sc(-c3cc(NC[C@H](O)c4ccccc4)ncn3)cc2c1` [Example 56, (1R)-2-{[6-(5-Methyl-1-benzothiophen-2-yl)pyrimidin-4-yl]amino}-1-phenylethanol] yielded an IC50 (Rat FAAH-1) of 40 nM and an IC50 (FAAH) of 2 nM.

In the case of `CC(C)Sc1ccc(-c2cc(NC[C@H](O)c3ccccc3)ncn2)cc1` [Example 91, (1R)-2-[(6-{4-[(1-Methylethyl)sulfanyl]phenyl}pyrimidin-4-yl)amino]-1-phenylethanol trifluoroacetic acid salt], the IC50 (Rat FAAH-1) is reported as 57 nM and the IC50 (FAAH) is reported as 3 nM.

Molecule `OC(CNc1cc(-c2ccc(OC(F)(F)F)cc2)ncn1)c1ccc(F)cc1` (stereo not drawn) [Example 113, 1-(4-Fluorophenyl)-2-[(6-{4-[(trifluoromethyl)oxy]phenyl}pyrimidin-4-yl)amino]ethanol] has an IC50 (Rat FAAH-1) of 41 nM and an IC50 (FAAH) of 18 nM.

In the case of `OC(CNc1cc(-c2ccc(C(F)(F)F)c(Cl)c2)ncn1)c1cc(-c2ccccc2)no1` (stereo not drawn) [Example 207, 2-({6-[3-Chloro-4-(trifluoromethyl)phenyl]pyrimidin-4-yl}amino)-1-(3-phenylisoxazol-5-yl)ethanol], the IC50 (Rat FAAH-1) is reported as 111 nM and the IC50 (FAAH) is reported as 67 nM.

In the case of `CSc1nc(NC[C@H](O)c2ccccc2)cc(-c2ccc(C(F)(F)F)c(Cl)c2)n1` [Example 60, (1R)-2-({6-[3-Chloro-4-(trifluoromethyl)phenyl]-2-(methylsulfanyl)pyrimidin-4-yl}amino)-1-phenylethanol trifluoroacetic acid salt], the IC50 (Rat FAAH-1) is reported as 28 nM and the IC50 (FAAH) is reported as 6 nM.

Molecule `O[C@@H](CNc1cc(-c2cccc(C(F)(C(F)(F)F)C(F)(F)F)c2)ncn1)c1ccccc1` [Example 220, (1R)-Phenyl-2-{6-[3-(1,2,2,2-tetrafluoro-1-trifluoromethyl-ethyl)-phenyl]-Pyrimidin-4-ylamino}-ethanol] has an IC50 (Rat FAAH-1) of 690 nM and an IC50 (FAAH) of 42 nM.

`O[C@@H](CNc1cc(-c2ccc(OC(F)(F)F)c(Cl)c2)ncn1)c1ccccc1` [Example 181, (1R)-2-({6-[3-Chloro-4-(trifluoromethoxy)phenyl]pyrimidin-4-yl}amino)-1-phenylethanol] showed an IC50 (Rat FAAH-1) of 20 nM and an IC50 (FAAH) of 7 nM.

With `OC(CNc1cc(-c2ccc(C(F)(F)F)c(Cl)c2)ncn1)c1ccc(F)c(Cl)c1` (stereo not drawn) [Example 134, 1-(3-Chloro-4-fluorophenyl)-2-({6-[3-chloro-4-(trifluoromethyl)phenyl]pyrimidin-4-yl}amino)ethanol trifluoroacetic acid salt] the IC50 (Rat FAAH-1) was 19 nM and the IC50 (FAAH) was 27 nM.

With `Cc1cc(C)cc(-c2cc(NC[C@H](O)c3ccccc3)ncn2)c1` [Example 40, (1R)-2-{[6-(3,5-Dimethylphenyl)pyrimidin-4-yl]amino}-1-phenylethanol trifluoroacetic acid salt] the IC50 (Rat FAAH-1) was greater than 10000 nM and the IC50 (FAAH) was 766 nM.

Molecule `CCOc1ccc(-c2cc(NC[C@H](O)c3ccccc3)ncn2)cc1C` [Example 31, (1R)-2-{[6-(4-Ethoxy-3-methylphenyl)pyrimidin-4-yl]amino}-1-Phenylethanol trifluoroacetic acid salt] has an IC50 (Rat FAAH-1) of 21 nM and an IC50 (FAAH) of 3 nM.

`OC(CNc1cc(-c2ccc(C(F)(F)F)c(Cl)c2)ncn1)c1ccc(-c2ccccn2)cc1` (stereo not drawn) [Example 193, 2-({6-[3-Chloro-4-(trifluoromethyl)phenyl]pyrimidin-4-yl}amino)-1-(4-Pyridin-2-ylphenyl)ethanol] was tested, and the IC50 (Rat FAAH-1) was 850 nM and the IC50 (FAAH) was 40 nM.

Molecule `CN(C)S(=O)(=O)c1ccc(-c2cc(NC[C@H](O)c3ccccc3)ncn2)cc1` [Example 76, 4-(6-{[(2R)-2-Hydroxy-2-phenylethyl]amino}pyrimidin-4-yl)-N,N-dimethylbenzenesulfonamide] has an IC50 (Rat FAAH-1) of 126 nM and an IC50 (FAAH) of 14 nM.

`O[C@@H](CNc1cc(-c2cc(F)cc(Cl)c2)ncn1)c1ccccc1` [Example 43, (1R)-2-{[6-(3-Chloro-5-fluorophenyl)pyrimidin-4-yl]amino}-1-phenylethanol trifluoroacetic acid salt] was tested, and the IC50 (Rat FAAH-1) was 446 nM and the IC50 (FAAH) was 88 nM.

Work on `CS(=O)(=O)c1ccc(-c2cc(NC[C@H](O)c3ccccc3)ncn2)cc1` [Example 66, (1R)-2-({6-[4-(Methylsulfonyl)phenyl]pyrimidin-4-yl}amino)-1-phenylethanol] yielded an IC50 (Rat FAAH-1) of 140 nM and an IC50 (FAAH) of 73 nM.

With `Cc1c(NC[C@H](O)c2ccccc2)ncnc1-c1ccc(C(F)(F)F)c(Cl)c1` [Example 47, (1R)-2-({6-[3-Chloro-4-(trifluoromethyl)phenyl]-5-methylpyrimidin-4-yl}amino)-1-phenylethanol trifluoroacetic acid salt] the IC50 (Rat FAAH-1) was 510 nM and the IC50 (FAAH) was 26 nM.

Work on `OC(CNc1cc(-c2ccc(C(F)(F)F)c(Cl)c2)ncn1)c1cc(-c2ccc(Cl)c(Cl)c2)no1` (stereo not drawn) [Example 213, 2-[6-(3-Chloro-4-trifluoromethyl-phenyl)-pyrimidin-4-ylamino]-1-[3-(3,4-dichloro-phenyl)-isoxazol-5-yl]-ethanol] yielded an IC50 (Rat FAAH-1) of 400 nM and an IC50 (FAAH) of 22 nM.
